Test results: ChEMBL document CHEMBL4346729, “The discovery of novel 3-aryl-indazole derivatives as peripherally restricted pan-Trk inhibitors for the treatment of pain” (Bioorg Med Chem Lett, 2019)
≈ marks a conversion by molar mass, not a printed value.

Tests used:
[1] = Unbound drug level in brain of CFA induced Sprague-Dawley rat at 20 mg/kg, po after 1 hr; assay type: ADME, organism-based; conditions: in vivo
[2] = biological target: Cyclin-dependent kinase 2/cyclin E1 (Homo sapiens) (UniProt P24864+P24941); test: Inhibition of CDK2/Cyclin-E1 (unknown origin) at 20 nM using Phosphatidylserine as substrate incubated for 60 mins in presence of [33P]-ATP by scintillation counting method; assay type: protein-complex assay
[3] = biological target: Glycogen synthase kinase-3 beta (Homo sapiens) (UniProt P49841); test: Inhibition of recombinant human full length N-terminal GST/His6-tagged GSK3-beta (M1 to T420) expressed in Sf9 insect cells at 20 nM using phosphatidylserine as substrate incubated for 60 mins in presence of [33P]-ATP by scintillation counting method
Sequence of Glycogen synthase kinase-3 beta (Homo sapiens) (P49841 whole entry, looked up): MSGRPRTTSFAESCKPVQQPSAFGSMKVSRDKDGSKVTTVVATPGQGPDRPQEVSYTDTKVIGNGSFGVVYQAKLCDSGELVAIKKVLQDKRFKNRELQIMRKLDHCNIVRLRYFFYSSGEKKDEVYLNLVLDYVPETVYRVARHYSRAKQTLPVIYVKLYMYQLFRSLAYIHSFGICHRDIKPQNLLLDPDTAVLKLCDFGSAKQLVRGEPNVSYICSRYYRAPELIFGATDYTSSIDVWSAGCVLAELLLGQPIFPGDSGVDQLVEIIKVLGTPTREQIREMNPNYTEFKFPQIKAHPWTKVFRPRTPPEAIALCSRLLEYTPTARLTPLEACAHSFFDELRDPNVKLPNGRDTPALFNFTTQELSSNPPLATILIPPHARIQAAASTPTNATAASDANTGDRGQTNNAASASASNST

[4] = biological target: Inhibitor of nuclear factor kappa-B kinase subunit beta (Homo sapiens) (UniProt O14920); test: Inhibition of recombinant human full length N-terminal GST/His6-tagged IKK-beta (M1 to S756) expressed in Sf9 insect cells at 20 nM using phosphatidylserine as substrate incubated for 60 mins in presence of [33P]-ATP by scintillation counting method
Sequence of Inhibitor of nuclear factor kappa-B kinase subunit beta (Homo sapiens) (O14920 whole entry): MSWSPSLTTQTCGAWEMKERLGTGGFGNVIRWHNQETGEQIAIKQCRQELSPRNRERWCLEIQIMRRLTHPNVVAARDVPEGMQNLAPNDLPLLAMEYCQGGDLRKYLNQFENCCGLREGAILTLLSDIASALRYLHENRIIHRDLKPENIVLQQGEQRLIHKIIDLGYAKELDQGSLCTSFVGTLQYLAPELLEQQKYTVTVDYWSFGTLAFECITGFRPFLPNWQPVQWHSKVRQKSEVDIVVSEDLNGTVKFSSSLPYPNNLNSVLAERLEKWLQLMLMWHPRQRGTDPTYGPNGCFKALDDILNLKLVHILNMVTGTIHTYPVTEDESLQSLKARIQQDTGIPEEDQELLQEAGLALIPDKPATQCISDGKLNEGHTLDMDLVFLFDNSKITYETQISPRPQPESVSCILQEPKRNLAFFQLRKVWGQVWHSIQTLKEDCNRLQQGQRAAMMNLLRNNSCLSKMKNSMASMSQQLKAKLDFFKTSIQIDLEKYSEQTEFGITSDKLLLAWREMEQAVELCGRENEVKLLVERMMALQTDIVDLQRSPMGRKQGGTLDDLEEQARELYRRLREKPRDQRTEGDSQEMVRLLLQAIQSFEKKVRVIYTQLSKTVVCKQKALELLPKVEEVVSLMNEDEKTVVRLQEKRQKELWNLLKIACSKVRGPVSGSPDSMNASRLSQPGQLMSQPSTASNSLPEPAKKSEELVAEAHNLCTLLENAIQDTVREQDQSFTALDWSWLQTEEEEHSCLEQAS

[5] = biological target: Interleukin-1 receptor-associated kinase 4 (Homo sapiens) (UniProt Q9NWZ3); test: Inhibition of recombinant human IRAK4 C-terminal (A104 to S460) expressed in Sf9 insect cells at 20 nM using phosphatidylserine as substrate incubated for 60 mins in presence of [33P]-ATP by scintillation counting method
Sequence of Interleukin-1 receptor-associated kinase 4 (Homo sapiens) (Q9NWZ3 whole entry): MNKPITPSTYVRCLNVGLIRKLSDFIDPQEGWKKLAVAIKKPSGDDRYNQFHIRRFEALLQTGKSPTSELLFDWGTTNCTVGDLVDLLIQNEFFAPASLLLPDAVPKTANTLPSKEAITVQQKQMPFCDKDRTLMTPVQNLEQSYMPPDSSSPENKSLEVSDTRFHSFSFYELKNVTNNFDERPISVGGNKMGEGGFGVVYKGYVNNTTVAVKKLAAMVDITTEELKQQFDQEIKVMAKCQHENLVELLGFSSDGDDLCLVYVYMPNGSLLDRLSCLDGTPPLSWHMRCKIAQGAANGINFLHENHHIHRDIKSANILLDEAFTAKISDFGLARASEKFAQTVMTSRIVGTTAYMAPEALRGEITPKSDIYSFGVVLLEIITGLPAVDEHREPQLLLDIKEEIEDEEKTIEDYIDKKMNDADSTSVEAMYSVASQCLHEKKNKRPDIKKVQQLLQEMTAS

[6] = biological target: Mitogen-activated protein kinase kinase kinase kinase 4 (Homo sapiens) (UniProt O95819); test: Inhibition of recombinant human N-terminal GST/His6-tagged MAP4K4 (A7 to W1320) expressed in Sf9 insect cells at 20 nM using phosphatidylserine as substrate incubated for 60 mins in presence of [33P]-ATP by scintillation counting method
Sequence of Mitogen-activated protein kinase kinase kinase kinase 4 (Homo sapiens) (O95819 2-1239 limits assumed): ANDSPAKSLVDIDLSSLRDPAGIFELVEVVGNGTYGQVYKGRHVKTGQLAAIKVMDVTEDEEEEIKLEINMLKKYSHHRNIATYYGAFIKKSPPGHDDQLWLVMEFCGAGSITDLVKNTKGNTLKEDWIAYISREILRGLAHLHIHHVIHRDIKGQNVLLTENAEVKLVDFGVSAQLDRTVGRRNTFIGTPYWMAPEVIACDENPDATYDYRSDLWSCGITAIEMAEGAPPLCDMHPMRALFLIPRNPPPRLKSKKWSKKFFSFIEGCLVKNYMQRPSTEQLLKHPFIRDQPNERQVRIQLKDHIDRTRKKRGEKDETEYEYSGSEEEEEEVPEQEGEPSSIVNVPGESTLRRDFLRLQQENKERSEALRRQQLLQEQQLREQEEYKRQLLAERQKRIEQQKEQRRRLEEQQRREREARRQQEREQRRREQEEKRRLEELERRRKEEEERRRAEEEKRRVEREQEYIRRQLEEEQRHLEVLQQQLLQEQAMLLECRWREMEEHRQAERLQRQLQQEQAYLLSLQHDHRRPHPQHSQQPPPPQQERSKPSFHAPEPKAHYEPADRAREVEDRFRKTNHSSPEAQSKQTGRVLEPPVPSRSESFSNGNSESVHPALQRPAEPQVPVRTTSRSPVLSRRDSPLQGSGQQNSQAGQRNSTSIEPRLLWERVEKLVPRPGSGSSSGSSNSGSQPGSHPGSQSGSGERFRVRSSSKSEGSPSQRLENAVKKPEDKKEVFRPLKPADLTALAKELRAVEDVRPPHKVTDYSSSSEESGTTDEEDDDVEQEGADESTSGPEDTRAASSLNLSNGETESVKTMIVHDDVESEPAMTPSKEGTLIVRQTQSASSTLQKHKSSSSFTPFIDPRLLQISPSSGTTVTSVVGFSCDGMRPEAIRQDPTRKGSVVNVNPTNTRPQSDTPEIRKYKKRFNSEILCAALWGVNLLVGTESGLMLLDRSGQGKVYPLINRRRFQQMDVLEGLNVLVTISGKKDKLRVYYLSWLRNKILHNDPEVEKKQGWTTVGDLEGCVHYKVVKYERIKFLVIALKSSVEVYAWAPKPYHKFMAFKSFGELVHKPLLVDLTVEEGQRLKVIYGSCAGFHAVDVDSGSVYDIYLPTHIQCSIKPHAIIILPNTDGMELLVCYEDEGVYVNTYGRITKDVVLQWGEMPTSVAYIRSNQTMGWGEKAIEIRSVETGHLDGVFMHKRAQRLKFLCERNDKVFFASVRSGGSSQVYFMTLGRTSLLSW

[7] = biological target: Serine/threonine-protein kinase 3 (Homo sapiens) (UniProt Q13188); test: Inhibition of recombinant human full length MST2 (M1 to F491) expressed in Sf9 insect cells at 20 nM using phosphatidylserine as substrate incubated for 60 mins in presence of [33P]-ATP by scintillation counting method
Sequence of Serine/threonine-protein kinase 3 (Homo sapiens) (Q13188 whole entry): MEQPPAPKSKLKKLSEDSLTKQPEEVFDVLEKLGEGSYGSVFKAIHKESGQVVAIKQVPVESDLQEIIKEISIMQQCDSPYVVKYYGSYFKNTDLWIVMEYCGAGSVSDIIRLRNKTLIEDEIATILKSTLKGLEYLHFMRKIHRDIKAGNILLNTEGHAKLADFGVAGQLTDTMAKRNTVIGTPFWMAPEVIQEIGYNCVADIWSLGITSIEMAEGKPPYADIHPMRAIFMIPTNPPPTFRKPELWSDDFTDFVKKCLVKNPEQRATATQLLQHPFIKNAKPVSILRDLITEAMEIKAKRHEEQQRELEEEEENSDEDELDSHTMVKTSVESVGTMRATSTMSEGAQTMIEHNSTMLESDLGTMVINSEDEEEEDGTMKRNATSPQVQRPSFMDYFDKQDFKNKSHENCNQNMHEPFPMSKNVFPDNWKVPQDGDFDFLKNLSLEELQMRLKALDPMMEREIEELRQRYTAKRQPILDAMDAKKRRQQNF

[8] = biological target: Serine/threonine-protein kinase D2 (Homo sapiens) (UniProt Q9BZL6); test: Inhibition of PRKD2 (unknown origin) at 20 nM using phosphatidylserine as substrate incubated for 60 mins in presence of [33P]-ATP by scintillation counting method
Sequence of Serine/threonine-protein kinase D2 (Homo sapiens) (Q9BZL6 whole entry): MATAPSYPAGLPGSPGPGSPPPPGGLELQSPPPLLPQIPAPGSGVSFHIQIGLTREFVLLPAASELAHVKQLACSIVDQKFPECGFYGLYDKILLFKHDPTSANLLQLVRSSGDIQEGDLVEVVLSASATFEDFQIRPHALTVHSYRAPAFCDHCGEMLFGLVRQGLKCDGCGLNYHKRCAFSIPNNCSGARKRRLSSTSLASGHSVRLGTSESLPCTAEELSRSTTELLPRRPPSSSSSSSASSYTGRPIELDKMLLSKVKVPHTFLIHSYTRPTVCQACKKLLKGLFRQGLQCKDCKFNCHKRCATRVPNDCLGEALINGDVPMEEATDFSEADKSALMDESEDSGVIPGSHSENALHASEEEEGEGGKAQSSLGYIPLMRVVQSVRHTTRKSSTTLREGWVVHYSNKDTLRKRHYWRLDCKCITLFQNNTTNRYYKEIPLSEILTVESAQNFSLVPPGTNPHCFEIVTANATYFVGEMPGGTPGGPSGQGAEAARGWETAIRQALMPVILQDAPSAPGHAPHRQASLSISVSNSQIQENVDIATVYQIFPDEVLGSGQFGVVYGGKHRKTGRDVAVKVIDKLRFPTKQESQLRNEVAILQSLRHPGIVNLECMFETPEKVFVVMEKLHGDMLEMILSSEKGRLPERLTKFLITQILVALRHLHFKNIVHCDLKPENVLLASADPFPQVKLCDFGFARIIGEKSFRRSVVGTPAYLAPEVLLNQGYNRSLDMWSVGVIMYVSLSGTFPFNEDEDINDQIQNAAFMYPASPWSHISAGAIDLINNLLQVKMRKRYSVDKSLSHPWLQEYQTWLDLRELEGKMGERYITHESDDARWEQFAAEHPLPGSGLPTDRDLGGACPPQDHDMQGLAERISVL

[9] = biological target: Tyrosine-protein kinase SYK (Homo sapiens) (UniProt P43405); test: Inhibition of recombinant human full length N-terminal GST and C-terminal His6-tagged SYK (M1 to N635) expressed in Sf9 insect cells at 20 nM using phosphatidylserine as substrate incubated for 60 mins in presence of [33P]-ATP by scintillation counting method
[10] = Solubility of test compound; assay type: physicochemical

- Drug uptake(free) [1]: 1.5 nM
- inhibition [2]: 5%
- inhibition [3]: 11%
- inhibition [4]: -7%
- inhibition [5]: -8%
- inhibition [6]: 5%
- inhibition [7]: 3%
- inhibition [8]: -8%
- inhibition [9]: 4%
- solubility [10]: 141 µM (≈ 56.2 µg/mL)
SMILES: Cn1cc(-c2n[nH]c3ccc(NCc4cc(F)ccc4S(C)(=O)=O)cc23)cn1
